We go through 2 compounds from publication PMC11591284, “Development and Optimization of a Redox Enzyme-Based Fluorescence Biosensor for the Identification of MsrB1 Inhibitors” (Antioxidants, 2024).

One may read the Kd as the concentration at which binding is half-saturated.

Test [1] deals with T1, Recombinant mouse MsrB1 protein (Mus musculus, UniProt Q9JLC3, U95C).
T1 construct: made in house; host or cells: E. coli (inferred; Rosetta2 (DE3) pLysS and pET-28a are described only for the RIYsense fusion)
T1 sequence (Q9JLC3 1-116 U95C): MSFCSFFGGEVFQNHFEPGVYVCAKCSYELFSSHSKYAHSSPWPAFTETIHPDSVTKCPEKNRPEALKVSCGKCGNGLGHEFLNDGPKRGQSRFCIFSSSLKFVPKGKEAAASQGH
In words: Microscale thermophoresis (MST) binding assay. The settings on record: read-out: KD ± SD. The method, then:
MST analysis was performed using the Monolith NT.115 system (NanoTemper Technologies, München, Germany). Recombinant mouse MsrB1 protein was labeled with the Monolith His-Tag Labeling Kit RED-tris-NTA 2nd Generation (NanoTemper Technologies, Germany). The protein was prepared at a concentration of 200 nM, and the RED-tris-NTA 2nd Generation dye was diluted to 100 nM in the PBS-T (Tween 20) buffer. A mixture of 100 μL of 200 nM protein and 100 μL of 100 nM dye was incubated at RT for 30 min. After incubation, the sample was centrifuged at 13,000 rpm at 4 °C for 10 min, and the supernatant was transferred to a new tube, completing the protein labeling process and preparing the sample for analysis. Inhibitor compounds were serially diluted in DMSO, starting at a concentration of 1.25 mM (1:1 dilution, 16 points), and then each of the 16 dilutions was further diluted fivefold with PBS-T buffer. Next, 10 μL of the diluted compounds were mixed with 10 μL of the labeled protein, followed by resuspension and incubation for 10 min at RT. The samples were loaded into capillaries in serial order and analyzed using the Monolith NT.115 system at 60% LED power and 60% MST power. Changes in normalized fluorescence, dependent on the concentration of the compounds after 30 s of MST on time, were analyzed to determine Kd values.
(In MST a laser heats a spot of the sample, and binding alters the fluorescence response.)

Test [2] addresses T2, MsrB1 (Mus musculus, UniProt Q9JLC3, U95C).
T2 construct: made in house
T2 sequence (Q9JLC3 1-116 U95C): T1 sequence (Q9JLC3 1-116 U95C)
Briefly: MsrB1 activity assay by HPLC with dabsylated MetO as substrate. The format is biochemical. The settings on record: dabsyl-MetO to dabsyl-Met. The method, then:
Methionine sulfoxide reductase B1 activity was determined using dabsylated MetO as substrate. […] The reaction was conducted for 30 min at 37 °C in a water bath and stopped by adding 200 μL of acetonitrile and vortexing. The reaction product, dabsyl-Met, was analyzed by HPLC using a ZORBAX RX-C18 column (5 μm; 4.6 × 150 mm). The column was pre-equilibrated with 0.14 M sodium acetate (pH 6.1), 0.5 mL/L triethylamine, and 30% acetonitrile. A total of 50 μL of the sample was loaded onto the column. The flow rate was 1 mL·min^−1, and a linear gradient elution mode was used (30% to 70%). Dabsyl-Met was detected via absorbance at 436 nm.

The subject of test [3] is bone marrow-derived macrophages (BMDMs). Briefly: Cytokine mRNA expression in LPS-stimulated bone marrow-derived macrophages. The settings on record: WT BMDMs, 1 μM inhibitor, LPS stimulation 24 h. The format is cell-based, mouse. The method, then: Bone marrow-derived macrophages (BMDMs) were generated by culturing bone marrow cells isolated from 8-week-old male C57BL/6 mice and MsrB1 knockout (KO) mice. The cells were cultured in high-glucose Dulbecco’s Modified Eagle Medium (DMEM) (Cytiva, Marlborough, MA, USA) supplemented with 10% fetal bovine serum (FBS), 100 U·mL^−1 penicillin-streptomycin (Gibco, Waltham, MA, USA), 20 mM HEPES (Gibco, Waltham, MA, USA), and 50 ng·mL^−1 recombinant mouse macrophage colony-stimulating factor (M-CSF) (BioLegend, San Diego, CA, USA). On day 3, 10 mL of fresh medium containing 50 ng·mL^−1 M-CSF was added to the cultures. On day 5, cells were treated with 1 μM MsrB1 inhibitors. On day 6, cells were treated with LPS (BioLegend, San Diego, CA, USA) for 24 h. Following treatment, cells were harvested, and total RNA was extracted using the High-Capacity cDNA Reverse Transcription Kit (Applied Biosystems, Foster City, CA, USA). Gene expression of IL-10 and IL-1rn mRNA was analyzed using the QuantStudio 3 Real-Time PCR system.

In another test the test system is C57BL/6 mice. Briefly: TPA-induced acute skin inflammation (ear edema) model. The format is in vivo, mouse. The settings on record: WT mice, 0.5 μM inhibitor in drinking water for 21 days, topical TPA. The method, then:
Six-week-old male wild-type (WT) C57BL/6 mice and MsrB1 knockout (KO) mice were used in this experiment. The mice were provided with 50 mL water containing either 0.5 μM MsrB1 inhibitors dissolved in 1% DMSO or 1% DMSO alone (control) for 21 days. After this period, 50 μg·mL^−1 of TPA was applied to the right ear of each mouse, while the left ear received acetone as a control. Twenty hours after the initial TPA application, a second dose was administered. The mice were then sacrificed, and ear tissue samples were collected. The tissues were fixed in 10% formalin, dehydrated, embedded in paraffin, and sectioned into slices 3–5 μm thick. The sections were deparaffinized, rehydrated, and stained with hematoxylin and eosin (H&E) for histological examination under microscopy.

The target of test [4] is T2, MsrB1. In words: NADPH consumption assay of MsrB1 activity. The format is biochemical. The settings on record: absorbance at 340 nm, 900 s vs 0 min; approximately 50 μM compound; DMSO control 0.638. The method, then:
The activity of MsrB1 was assessed over a 900-s period in a 20 mM 4-(2-hydroxyethyl)-1-piperazineethanesulfonic acid (HEPES) buffer at pH 7.5 and 37 °C. The reaction mixture contained 500 μM N-AcMetO, 6 μM MsrB1, 2 μM mouse thioredoxin, 1 μM mouse thioredoxin reductase, 50 μM NADPH, and approximately 50 μM of a chemical compound. All components, except for the chemical compound, substrate (N-AcMetO), and NADPH, were pre-mixed. The chemical compound was added and incubated for 10 min. NADPH (50 μM) and 500 μM N-AcMetO were added before absorbance measurements began. The rate of NADPH oxidation was monitored by measuring absorbance at 340 nm every 30 s until the reaction was complete.

On to `CCc1ccc(C2=NN(c3ccc(S(N)(=O)=O)cc3)C(c3ccc(O)cc3)C2)cc1` (centres unmarked) [A06, 4-[5-(4-ethylphenyl)-3-(4-hydroxyphenyl)-3,4-dihydropyrazol-2-yl]benzenesulfonamide], for which the Kd in test [1] amounted to 0.0283 ± 0.00121 µM. Besides, the “Relative enzyme activity of MsrB1” value on MsrB1 [2] (10 µM compound) was “no inhibition was observed”. Also, on MsrB1 [2] (100 µM and 500 µM compound), the “Relative enzyme activity of MsrB1” value is “decreased in a concentration-dependent manner”. In addition, in test [3], the “IL-1rn mRNA expression” value was “reduced” and the “IL-10 mRNA expression” value is on record as “significantly reduced”. In addition, the “Dermal area of TPA-treated auricle (H&E) compared to wild-type control mice” value in the test on C57BL/6 mice is given as “substantially more enlarged”. Further, on MsrB1 [4], the “NADPH (Abs15min/Abs0min)” value is given as 0.942.

With `CCc1ccc(-n2c3nc(=O)[nH]c(=O)c-3cc3c(Cl)cccc32)cc1` [B03, 6-chloro-10-(4-ethylphenyl)pyrimido[4,5-b]quinoline-2,4-dione], in test [1], the Kd turned out to be 0.0971 ± 0.0016 µM. Besides, the “Relative enzyme activity of MsrB1” value at MsrB1 [2] (10 µM compound) is “no inhibition was observed”. Also, on MsrB1 [2] (100 µM and 500 µM compound), the “Relative enzyme activity of MsrB1” value is “decreased in a concentration-dependent manner”. Besides, in test [3], the “IL-1rn mRNA expression” value is “reduced” and the “IL-10 mRNA expression” value is reported as “significantly reduced”. For the same compound, in the test on C57BL/6 mice, the “Dermal area of TPA-treated auricle (H&E) compared to wild-type control mice” value was “substantially more enlarged”. Moreover, the “NADPH (Abs15min/Abs0min)” value on MsrB1 [4] worked out at 0.918.
